In assay [1] the target is T1, human αvβ3 (Homo sapiens, UniProt P05106+P06756).
T1 construct: purchased Chemicon CC10118
Description: αvβ3-vitronectin assay (ELISA, inhibition of αvβ3-vitronectin interaction). The settings on record: for IC50: Table I, read-out: αvβ3 IC50 (nM), inhibition of the αvβ3-vitronectin interaction. Type of assay: binding. The procedure:
The assay was based on the method of Niiya (Niiya, K., et al., Blood 70:475-483 (1987)). Costar 9018 flat-bottom 96-well ELISA plates were coated overnight at 4° C. with 100 μL/well of 0.4 μg/mL human αvβ3 (Chemicon CC10118) in TS buffer (20 mM Tris-HCl pH 7.5, 150 mM NaCl, 1 mM CaCl2, 1 mM MgCl2, 1 mM MnCl2). All subsequent steps were performed at room temperature. Plates were blocked for 2 hr with 200 μL/well of TS buffer containing 1% BSA (TSB buffer), and washed 5 times with 200 μL/well of TS buffer. Controls or test compound (0.44-455 nM) were mixed with 1 μg/mL of human vitronectin (Chemicon CC1019) that had been biotinylated in-house with sulfo-NHS-LC-LC-biotin (Pierce 21338, 20:1 molar ratio), and 100 μL/well of these solutions (in TSB buffer) were incubated for 2 hr. The plate was then washed 5 times with TS buffer, and 100 μL/well of 1 μ/mL NeutrAvidin-horseradish peroxidase conjugate (Pierce 31001) in TSB buffer was incubated for 1 hr. Following a 5-fold TS buffer wash, the plate was developed and results were calculated as described for the fibrinogen-IIbIIIa assay.

In assay [2] the target is T2, human GPIIbIIIa (Homo sapiens, UniProt P05106+P08514).
T2 construct: purchased Enzyme Research Laboratories
T2 sequence (P08514 32-887 limits assumed): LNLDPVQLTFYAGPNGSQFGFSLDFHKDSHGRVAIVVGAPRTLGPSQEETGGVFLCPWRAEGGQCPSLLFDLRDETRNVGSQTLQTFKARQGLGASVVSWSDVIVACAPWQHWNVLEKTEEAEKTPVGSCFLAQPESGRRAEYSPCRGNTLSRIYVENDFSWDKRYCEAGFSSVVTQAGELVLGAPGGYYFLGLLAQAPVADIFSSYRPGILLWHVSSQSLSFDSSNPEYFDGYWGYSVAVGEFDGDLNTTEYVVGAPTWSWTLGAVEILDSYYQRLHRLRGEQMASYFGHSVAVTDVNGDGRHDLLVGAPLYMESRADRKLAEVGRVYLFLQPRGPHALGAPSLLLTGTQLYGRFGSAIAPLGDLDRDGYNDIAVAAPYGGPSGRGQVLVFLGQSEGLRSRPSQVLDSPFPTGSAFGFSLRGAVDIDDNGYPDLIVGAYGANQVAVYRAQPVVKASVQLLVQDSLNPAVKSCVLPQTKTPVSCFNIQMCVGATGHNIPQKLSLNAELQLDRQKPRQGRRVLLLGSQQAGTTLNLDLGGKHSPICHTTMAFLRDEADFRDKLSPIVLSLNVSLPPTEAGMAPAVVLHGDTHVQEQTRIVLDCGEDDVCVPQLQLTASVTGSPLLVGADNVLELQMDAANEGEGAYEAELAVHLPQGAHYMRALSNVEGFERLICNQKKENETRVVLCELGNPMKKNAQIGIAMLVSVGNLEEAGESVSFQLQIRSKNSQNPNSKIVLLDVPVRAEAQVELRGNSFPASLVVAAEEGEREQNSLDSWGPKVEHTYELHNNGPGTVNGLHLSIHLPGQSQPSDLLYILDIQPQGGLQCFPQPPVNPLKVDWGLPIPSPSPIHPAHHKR
T2 sequence (P08514 891-1039 partner limits assumed): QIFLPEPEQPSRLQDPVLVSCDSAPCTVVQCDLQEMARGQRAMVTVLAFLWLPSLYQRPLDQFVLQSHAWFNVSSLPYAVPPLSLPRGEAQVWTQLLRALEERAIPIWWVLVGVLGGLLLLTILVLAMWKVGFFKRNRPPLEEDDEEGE
T2 sequence (P05106 27-788): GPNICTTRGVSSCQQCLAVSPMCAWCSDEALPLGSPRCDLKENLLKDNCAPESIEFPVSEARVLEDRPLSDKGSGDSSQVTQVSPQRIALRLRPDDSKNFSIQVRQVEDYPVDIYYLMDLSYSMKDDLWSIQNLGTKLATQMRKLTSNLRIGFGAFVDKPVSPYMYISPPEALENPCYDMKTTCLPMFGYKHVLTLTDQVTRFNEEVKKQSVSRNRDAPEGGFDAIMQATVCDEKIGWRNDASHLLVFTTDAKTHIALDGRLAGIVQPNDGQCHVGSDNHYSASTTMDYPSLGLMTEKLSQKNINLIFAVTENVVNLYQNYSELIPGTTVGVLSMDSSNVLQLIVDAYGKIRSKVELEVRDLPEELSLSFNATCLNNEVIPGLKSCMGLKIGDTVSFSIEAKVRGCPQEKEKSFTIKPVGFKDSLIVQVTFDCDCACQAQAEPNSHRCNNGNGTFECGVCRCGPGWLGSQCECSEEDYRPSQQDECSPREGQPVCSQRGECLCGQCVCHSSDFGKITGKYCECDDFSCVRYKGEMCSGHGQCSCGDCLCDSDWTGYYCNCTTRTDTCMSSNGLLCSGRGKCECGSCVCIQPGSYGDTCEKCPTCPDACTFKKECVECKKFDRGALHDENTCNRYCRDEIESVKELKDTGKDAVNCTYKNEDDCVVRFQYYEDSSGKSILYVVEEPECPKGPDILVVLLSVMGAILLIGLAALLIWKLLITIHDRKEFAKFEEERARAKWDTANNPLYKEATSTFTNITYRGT
Description: Fibrinogen-IIb-IIIa assay (ELISA, inhibition of fibrinogen-GPIIbIIIa interaction). The class given is binding. The settings on record: mean of three replicate determinations; FIG. 1. As to the method:
Fibrinogen-IIb-IIIa assay
The assay is based on the method of Dennis (Dennis, M. S., et al, Proteins 15: 312-321 (1993)). Costar 9018 flat-bottom 96-well ELISA plates were coated overnight at 4° C. with 100 μL/well of 10 μg/mL human fibrinogen (Calbiochem 341578) in 20 mM Tris-HCl pH 7.5, 150 mM NaCl, 2 mM CaCl2, 0.02% NaN3 (TAC buffer), and blocked for 1 hr at 37° C. with 150 μL/well of TAC buffer containing 0.05% Tween 20 and 1% bovine serum albumin (TACTB buffer). After washing 3 times with 200 μL/well of 10 mM Na2HPO4 pH 7.5, 150 mM NaCl, 0.01% Tween 20 (PBST buffer), controls or test compound (0.036-18.2 μM) were mixed with 40 μg/mL human GPIIbIIIa (Enzyme Research Laboratories) in TACTB buffer, and 100 μL/well of these solutions were incubated for 2 hr at 37° C. The plate was then washed 3 times with PBST buffer, and 100 μL/well of a monoclonal anti-GPIIbIIIa antibody in TACTB buffer (1 μg/mL, Enzyme Research Laboratories MabGP2b3a) was incubated at 37° C. for 1 hr. […] The reaction was stopped with 50 μL/well of 2M H2SO4, and the absorbence at 492 nm was recorded. Percent (%) inhibition was calculated from the average of three separate determinations relative to buffer controls (no test compound added), and a four parameter fit (Marquardt, D. W., J. Soc. Indust. Appl. Math. 11:431-441 (1963)) was used to estimate the half maximal inhibition concentration (IC50).

pIC50: −log10 of the molar value. Structures can show the parent of a compound that is named as a salt. Where two headings read alike, the source gives them in different places.

T1 sequence (P06756 31-889 limits assumed): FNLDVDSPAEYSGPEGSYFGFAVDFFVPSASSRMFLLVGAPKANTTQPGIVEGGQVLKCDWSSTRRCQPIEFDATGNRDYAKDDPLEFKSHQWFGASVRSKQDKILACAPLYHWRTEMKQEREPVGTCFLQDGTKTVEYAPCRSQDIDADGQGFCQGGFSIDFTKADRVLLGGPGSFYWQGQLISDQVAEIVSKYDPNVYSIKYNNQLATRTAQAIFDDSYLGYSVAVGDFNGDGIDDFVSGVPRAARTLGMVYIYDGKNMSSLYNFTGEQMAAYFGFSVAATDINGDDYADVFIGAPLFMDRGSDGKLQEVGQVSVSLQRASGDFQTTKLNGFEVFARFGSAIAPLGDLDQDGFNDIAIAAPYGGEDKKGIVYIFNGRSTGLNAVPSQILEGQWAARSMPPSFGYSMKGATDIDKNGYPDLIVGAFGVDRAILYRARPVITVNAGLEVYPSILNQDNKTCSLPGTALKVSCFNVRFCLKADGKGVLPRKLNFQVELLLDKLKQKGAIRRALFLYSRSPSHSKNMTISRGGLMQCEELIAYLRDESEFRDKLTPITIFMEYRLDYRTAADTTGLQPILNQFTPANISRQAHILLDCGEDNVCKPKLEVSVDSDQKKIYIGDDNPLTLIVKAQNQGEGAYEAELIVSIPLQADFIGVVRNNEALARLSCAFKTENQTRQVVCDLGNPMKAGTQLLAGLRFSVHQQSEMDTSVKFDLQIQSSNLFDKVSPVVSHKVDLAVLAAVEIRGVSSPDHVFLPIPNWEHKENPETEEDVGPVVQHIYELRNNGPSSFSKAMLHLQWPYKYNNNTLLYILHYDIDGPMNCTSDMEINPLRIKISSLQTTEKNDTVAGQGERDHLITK
T1 sequence (P06756 891-1048 partner limits assumed): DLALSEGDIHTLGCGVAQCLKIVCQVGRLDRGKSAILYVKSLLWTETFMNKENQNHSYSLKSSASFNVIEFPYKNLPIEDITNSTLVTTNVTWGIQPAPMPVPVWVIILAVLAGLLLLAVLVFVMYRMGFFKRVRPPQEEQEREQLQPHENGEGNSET
T1 sequence (P05106 27-788): as the sequence (P05106 27-788) above

Consider `Cc1nn(C)c(Cl)c1S(=O)(=O)N[C@@H](Cc1ccc(OCCCONC(=N)N)cc1)C(=O)O` [Example 77, (2S)-3-{4-[3-(Amidinoaminooxy)propoxy]phenyl}-2-{[(5-chloro-1,3-dimethylpyrazol-4-yl)sulfonyl]amino}propanoic acid trifluoroacetic acid salt], for which, in assay [1], the IC50 stood at 6 nM.

As to `CC1(C)C2CCC1(CS(=O)(=O)N[C@@H](Cc1ccc(OCCCONC(=N)N)cc1)C(=O)O)C(=O)C2` (stereo partly drawn) [Example 86, (2S)-2-{[(1S)-10-Camphorsulfonyl]amino}-3-{4-[3-(amidinoaminooxy)propoxy]phenyl}propanoic acid trifluoroacetic acid salt], the IC50 in assay [1] was found to be 1 nM.

Regarding `N=C(N)NOCCCOc1ccc(C[C@H](NS(=O)(=O)c2c(Cl)cccc2Cl)C(=O)O)cc1` [Example 46, (2S)-3-{4-[3-(Amidinoaminooxy)propoxy]phenyl}-2-{[(2,6-dichlorophenyl)sulfonyl]amino}propanoic acid trifluoroacetic acid salt], the IC50 in assay [1] amounted to 2 nM.

For `Cc1ccc([N+](=O)[O-])cc1S(=O)(=O)N[C@@H](Cc1ccc(OCCCONC(=N)N)cc1)C(=O)O` [Example 11, (2S)-3-{4-[3-(Amidinoaminooxy)propoxy]phenyl)}-2-{[(2-methyl-5-nitrophenyl)sulfonyl]amino}propanoic acid trifluoroacetic acid salt], in assay [1], the IC50 worked out at 2 nM.

For `CCCCS(=O)(=O)N[C@@H](Cc1ccc(OCCCONC(=N)N)cc1)C(=O)O` [Example 1, (2S)-3-{4-[3-(amidinoaminooxy)propoxy]phenyl}-2-[(butylsulfonyl)amino]propanoic acid trifluoroacetic acid], the negative logarithm of the IC50 (pIC50) in assay [2] is 6.11; in assay [1] (mean of three replicate determinations, FIG. 2, read-out: IC50, inhibition of the αvβ3-vitronectin interaction), 7.55.

The values above are taken from US6344484B1, “Tyrosine alkoxyguanidines as integrin inhibitors” (3-Dimensional Pharmaceuticals, Inc., priority 1999, dated 2002).
